# Experimental data as given in ChEMBL document CHEMBL1201862, “PubChem BioAssay data set” (2004).
# Activity calls are given as the source filed them.
# Legend:
# [1] = molecular target: Protein Wnt-3a (Mus musculus, UniProt P27467); test: SAR analysis of small molecule antagonists of Gli-SUFU in a Wnt3a luminescent reporter assay.; assay type: functional
# [2] = molecular target: Dual specificity tyrosine-phosphorylation-regulated kinase 1A (Rattus norvegicus, UniProt Q63470); assay type: biochemical, Homo sapiens
# [3] = molecular target: Fructose-bisphosphate aldolase (Mycobacterium tuberculosis, UniProt P9WQA3); test: Fluorescence-based biochemical high throughput dose response assay for inhibitors of the fructose-bisphosphate aldolase (FBA) of M. tuberculosis.; assay type: functional
# Sequence of Fructose-bisphosphate aldolase (P9WQA3 whole entry): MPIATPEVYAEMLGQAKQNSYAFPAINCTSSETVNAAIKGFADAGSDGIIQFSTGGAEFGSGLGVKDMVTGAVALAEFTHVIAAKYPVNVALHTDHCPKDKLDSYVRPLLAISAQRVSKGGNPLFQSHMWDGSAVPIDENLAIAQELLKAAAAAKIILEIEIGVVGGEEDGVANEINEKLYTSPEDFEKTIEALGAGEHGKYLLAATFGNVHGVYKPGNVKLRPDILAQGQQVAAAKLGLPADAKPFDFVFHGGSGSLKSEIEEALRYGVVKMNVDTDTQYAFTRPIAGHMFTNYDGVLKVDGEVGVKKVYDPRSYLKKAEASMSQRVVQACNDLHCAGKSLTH
# [4] = miR-122 activators in hepatoma reporter cells, dose response, cell-based, Huh7 psiCHECK-miR122, Renilla luciferase, cherry-picked (AID 651956); assay type: functional;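 note: huh7 hepatoma cells stably carrying a psiCHECK-2 miR-122 sensor plasmid; renilla luciferase signal reporting endogenous miR-122 activity after 48 h compound exposure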
# [5] = cytotoxicity toward NIH3T3 fibroblasts, dose response, counter-screen, cell-based, ATP luminescence, mouse fibroblasts (AID 2010); assay type: functional;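 note: cells exposed to compound for about 90 hours before reading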
# [6] = test system: Streptococcus sp. 'group A'; test: growth inhibition of control SK(-) GAS strain, dose response, counter-screen for streptokinase expression inhibitor project, luminescence, kanamycin, BacTiterGlo, confirmation (AID 1900); assay type: functional, organism-based
# [7] = test system: Streptococcus; test: Group A Streptococcus viability loss, dose response, counter-screen for streptokinase expression inhibitor project, luminescence, BacTiterGlo (AID 1915); assay type: functional, organism-based;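 note: potency for reduction of bacterial viability or growth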
# [8] = molecular target: T1, Ubiquitin-conjugating enzyme E2 N (Homo sapiens, UniProt P61088); assay type: functional;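 note: Dose-response confirmation in a TR-FRET assay detecting UBC13-driven polyubiquitin chain formation, inhibition measured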
# T1 sequence (P61088 whole entry): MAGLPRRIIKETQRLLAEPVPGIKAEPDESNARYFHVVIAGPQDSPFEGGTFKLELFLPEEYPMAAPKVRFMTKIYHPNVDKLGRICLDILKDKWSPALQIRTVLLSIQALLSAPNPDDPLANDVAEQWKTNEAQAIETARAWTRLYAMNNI
# [9] = inhibitors of intracellular T. cruzi replication, confirmation, NIH3T3 host cells, beta-gal luminescence (AID 2044); assay type: functional, cell-based;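 note: intracellular parasites grown in NIH/3T3 mouse fibroblasts as host cells; luminescent beta-galactosidase reporter signal from transgenic T. cruzi replicating inside host cells; inhibitors lower the luminescence signal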
# [10] = molecular target: T2, Streptokinase A (Streptococcus pyogenes serotype M1, UniProt P10520); test: S. pyogenes streptokinase expression inhibitors, potency, dose response, plasminogen activation absorbance, OD405 (AID 1914); assay type: functional, Streptococcus pyogenes M1 GAS;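 note: secreted streptokinase activity via plasminogen activation per viability signal from cell pellet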
# T2 sequence (P10520 whole entry): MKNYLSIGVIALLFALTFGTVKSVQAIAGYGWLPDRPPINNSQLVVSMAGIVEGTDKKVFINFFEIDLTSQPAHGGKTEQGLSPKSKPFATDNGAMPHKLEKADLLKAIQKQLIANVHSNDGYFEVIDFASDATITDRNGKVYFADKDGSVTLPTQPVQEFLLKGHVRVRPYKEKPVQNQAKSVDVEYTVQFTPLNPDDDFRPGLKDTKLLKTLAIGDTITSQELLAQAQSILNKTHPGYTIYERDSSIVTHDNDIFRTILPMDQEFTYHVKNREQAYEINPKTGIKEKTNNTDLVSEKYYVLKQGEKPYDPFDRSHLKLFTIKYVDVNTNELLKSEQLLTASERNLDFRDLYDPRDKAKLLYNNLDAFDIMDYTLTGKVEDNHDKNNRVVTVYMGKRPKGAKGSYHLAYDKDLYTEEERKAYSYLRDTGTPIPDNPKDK
# [11] = cytotoxicity in HEK-293T NF-kB-Luc cells, dose response, cytotoxicity control for B/T-cell NF-kB inhibitor project, cell-based, uHTS hits (AID 489019); assay type: functional;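 note: IC50 reflects cytotoxicity as loss of cell viability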
# [12] = Shn3 3'UTR reporter inhibitors, dose response, cell-based, Clone20 osteoblasts, firefly luciferase, cherry-picked (AID 624132); assay type: functional;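 note: firefly luciferase luminescence from reporter carrying the Shn3 3'UTR in osteoblasts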
# [13] = HepG2 cell cytotoxicity, dose response, cytotoxicity control for Shn3 inhibitor project, CellTiter-Glo, cherry-picked (AID 624134); assay type: functional, cell-based
# [14] = test system: INS1; test: beta cell apoptosis inhibitors, cytokine rescue, dose response, luminescence, retest (AID 449756); assay type: functional, cell-based; settings: Rattus norvegicus;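 note: cell death triggered by IL-1 beta plus TNF-alpha plus IFN-gamma mixture; protective hits raise ATP signal compared with cytokine alone wells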
# [15] = cells; assay type: functional, cell-based; settings: HEK-CNG
# [16] = molecular target: T3, COUP transcription factor 2 (Homo sapiens, UniProt P24468); test: Luminescence-based cell-based high throughput dose response assay to identify inhibitors of COUP-TFII (NR2F2).; assay type: functional;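 note: HEK293 cells transiently cotransfected with COUP-TFII expression vector and reporter; luciferase reporter luminescence driven by COUP-TFII from the pX2-168 reporter plasmid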
# T3 sequence (P24468 whole entry): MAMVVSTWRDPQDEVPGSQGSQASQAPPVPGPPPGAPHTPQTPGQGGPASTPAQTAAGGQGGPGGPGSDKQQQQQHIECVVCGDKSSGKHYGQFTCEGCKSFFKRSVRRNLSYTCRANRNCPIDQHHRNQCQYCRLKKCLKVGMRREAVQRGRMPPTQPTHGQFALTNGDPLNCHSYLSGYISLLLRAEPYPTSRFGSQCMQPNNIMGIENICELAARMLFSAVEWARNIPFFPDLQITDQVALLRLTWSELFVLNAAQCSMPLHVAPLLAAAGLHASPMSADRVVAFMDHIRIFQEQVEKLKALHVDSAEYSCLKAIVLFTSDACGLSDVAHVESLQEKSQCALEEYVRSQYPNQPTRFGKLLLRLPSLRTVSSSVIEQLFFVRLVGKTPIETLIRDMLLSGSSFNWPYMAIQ
# [17] = control 3'UTR Renilla luciferase suppression, dose response, counter-screen for Shn3 inhibitor project, cell-based, Clone20-Shn3RL, cherry-picked (AID 624133); assay type: functional
# [18] = test system: Jurkat; test: antigen receptor-induced NF-kB inhibitors, dose response, Jurkat, luciferase reporter, luminescence, B- and T-cell (AID 489004); assay type: functional, cell-based; settings: Homo sapiens;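 note: NF-kB luciferase reporter Jurkat cells stimulated with PMA plus ionomycin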
# [19] = molecular target: Galanin receptor type 3 (Homo sapiens, UniProt O60755); test: Fluorescence-based cell-based primary high throughput dose response assay to identify antagonists of the Galanin Receptor 3 (GalR3).; assay type: functional
# Sequence of Galanin receptor type 3 (O60755 whole entry): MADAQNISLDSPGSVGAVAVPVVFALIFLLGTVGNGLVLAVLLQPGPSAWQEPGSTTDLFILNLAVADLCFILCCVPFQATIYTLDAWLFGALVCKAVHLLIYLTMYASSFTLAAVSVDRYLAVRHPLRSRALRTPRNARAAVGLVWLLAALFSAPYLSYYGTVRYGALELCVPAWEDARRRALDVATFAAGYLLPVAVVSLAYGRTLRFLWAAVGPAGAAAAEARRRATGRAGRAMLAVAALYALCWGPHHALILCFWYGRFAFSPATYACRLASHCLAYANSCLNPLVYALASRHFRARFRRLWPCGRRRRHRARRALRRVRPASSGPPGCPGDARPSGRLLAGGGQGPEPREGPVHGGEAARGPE
# [20] = non-specific cell cytotoxicity, dose response, cytotoxicity control for PAX8 inhibitor project, plate reader, dry powder samples (AID 743021); assay type: functional, cell-based
# [21] = molecular target: T4, DNA repair protein RAD52 homolog (Homo sapiens, UniProt P43351); assay type: functional, biochemical
# T4 sequence (P43351 whole entry): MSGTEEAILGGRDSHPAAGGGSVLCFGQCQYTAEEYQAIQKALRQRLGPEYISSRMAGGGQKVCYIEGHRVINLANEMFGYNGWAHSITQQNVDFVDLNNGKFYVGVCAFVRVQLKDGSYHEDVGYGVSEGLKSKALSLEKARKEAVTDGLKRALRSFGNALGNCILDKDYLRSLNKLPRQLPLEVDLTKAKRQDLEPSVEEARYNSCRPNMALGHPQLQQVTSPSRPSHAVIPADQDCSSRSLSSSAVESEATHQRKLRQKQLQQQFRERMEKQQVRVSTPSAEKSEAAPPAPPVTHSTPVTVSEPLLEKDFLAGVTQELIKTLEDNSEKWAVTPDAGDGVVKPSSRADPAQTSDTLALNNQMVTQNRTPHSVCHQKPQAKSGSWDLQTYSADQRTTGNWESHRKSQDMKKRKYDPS
# [22] = molecular target: Beta Lactamase (Pseudomonas aeruginosa, UniProt Q932Y6); test: beta-lactamase reporter inhibitor potency, dose response, artefact control for NOD2-RIPK2 interaction inhibitor project, BLA reporter cells, FRET fluorescence (AID 651552); assay type: functional, cell-based
# Sequence of Beta Lactamase (Q932Y6 whole entry, the tested form may be a part): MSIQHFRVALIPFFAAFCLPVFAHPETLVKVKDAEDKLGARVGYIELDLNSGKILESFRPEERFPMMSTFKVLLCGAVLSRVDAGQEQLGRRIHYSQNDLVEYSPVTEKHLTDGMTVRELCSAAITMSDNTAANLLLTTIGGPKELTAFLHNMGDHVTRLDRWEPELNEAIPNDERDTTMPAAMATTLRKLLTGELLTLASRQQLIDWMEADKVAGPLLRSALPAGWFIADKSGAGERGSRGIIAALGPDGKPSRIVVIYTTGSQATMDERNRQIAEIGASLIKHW
# [23] = Fluorescence-based cell-based high throughput dose response assay for inhibitors of the interaction of nucleotide-binding oligomerization domain containing 2 (NOD2) and the receptor-interacting serine-threonine kinase 2 (RIPK2).; assay type: functional; settings: Homo sapiens
# [24] = molecular target: Paired box protein Pax-8 (Homo sapiens, UniProt Q06710); test: inhibitors of PAX8-driven TPO luciferase reporter, dose response, RMG-I cells, cherry-pick (AID 687027); assay type: functional, cell-based;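 note: luciferase reporter driven by Pax8 target thyroperoxidase promoter measured by SteadyGlo luminescence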
# Sequence of Paired box protein Pax-8 (Q06710 whole entry): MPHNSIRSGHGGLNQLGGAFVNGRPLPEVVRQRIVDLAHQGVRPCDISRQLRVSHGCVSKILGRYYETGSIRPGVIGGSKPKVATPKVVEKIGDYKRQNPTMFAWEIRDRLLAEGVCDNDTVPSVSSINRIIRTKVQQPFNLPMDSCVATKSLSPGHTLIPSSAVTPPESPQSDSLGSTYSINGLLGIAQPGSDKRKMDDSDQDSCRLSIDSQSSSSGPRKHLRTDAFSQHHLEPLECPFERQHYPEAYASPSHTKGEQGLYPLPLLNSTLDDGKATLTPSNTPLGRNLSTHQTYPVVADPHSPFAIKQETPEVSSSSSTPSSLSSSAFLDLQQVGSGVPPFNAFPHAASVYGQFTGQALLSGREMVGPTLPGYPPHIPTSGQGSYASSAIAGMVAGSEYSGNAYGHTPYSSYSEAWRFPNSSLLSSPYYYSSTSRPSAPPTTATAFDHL
# [25] = molecular target: T5, Beta-lactamase (Pseudomonas aeruginosa, UniProt Q79MP6); test: IMP-1 metallo-beta-lactamase inhibitors, dose response, selectivity assay for VIM-2 inhibitor project, biochemical, epi-absorbance (AID 1920)
# T5 sequence (Q79MP6 whole entry): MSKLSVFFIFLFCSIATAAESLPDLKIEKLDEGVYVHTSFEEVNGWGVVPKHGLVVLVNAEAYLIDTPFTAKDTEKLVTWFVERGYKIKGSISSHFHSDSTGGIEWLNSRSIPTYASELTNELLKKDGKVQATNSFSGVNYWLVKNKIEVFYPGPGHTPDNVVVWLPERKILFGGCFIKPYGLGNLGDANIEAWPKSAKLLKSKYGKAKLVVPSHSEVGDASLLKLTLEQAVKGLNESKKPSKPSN
# [26] = molecular target: FAD-linked sulfhydryl oxidase ALR (Homo sapiens, UniProt P55789); test: inhibitors of human ALR sulfhydryl oxidase, dose response, biochemical, H2O2 detection, luminescence, cherry-pick (AID 493248)
# Sequence of FAD-linked sulfhydryl oxidase ALR (P55789 whole entry): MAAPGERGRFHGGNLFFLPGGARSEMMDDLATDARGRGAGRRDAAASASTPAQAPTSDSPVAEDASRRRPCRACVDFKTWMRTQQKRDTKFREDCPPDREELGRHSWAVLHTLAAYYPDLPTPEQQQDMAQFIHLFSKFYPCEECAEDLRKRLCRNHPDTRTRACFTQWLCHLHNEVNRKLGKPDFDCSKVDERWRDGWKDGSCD
# [27] = molecular target: T5, Beta-lactamase; test: […] counterscreen for selective VIM-2 inhibitors: dose response biochemical high throughput screening assay to identify inhibitors of IMP-1 metallo-beta-lactamase.
# [28] = molecular target: T6, Beta-lactamase (Salmonella choleraesuis (strain SC-B67), UniProt Q5J463); test: Epi-absorbance-based counterscreen for selective VIM-2 inhibitors: dose response biochemical high throughput screening assay to identify inhibitors of TEM-1 serine-beta-lactamase.
# T6 sequence (Q5J463 whole entry): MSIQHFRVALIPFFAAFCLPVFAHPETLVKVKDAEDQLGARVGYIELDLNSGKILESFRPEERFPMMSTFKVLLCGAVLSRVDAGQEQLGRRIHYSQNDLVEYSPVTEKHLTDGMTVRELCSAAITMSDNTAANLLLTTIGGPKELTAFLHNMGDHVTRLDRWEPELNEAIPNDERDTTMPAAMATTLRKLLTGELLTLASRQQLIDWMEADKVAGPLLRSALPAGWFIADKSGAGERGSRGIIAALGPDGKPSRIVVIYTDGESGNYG
# [29] = molecular target: T7, Probable nicotinate-nucleotide adenylyltransferase (Staphylococcus aureus (strain N315), UniProt P65502); assay type: functional, Staphylococcus aureus subsp. aureus N315; settings: read-out: IC50_Mean;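 for IC50 Mean: confirmatory dose-response retesting of NadD inhibitor hits first found in an ultra-high-throughput screen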
# T7 sequence (P65502 whole entry): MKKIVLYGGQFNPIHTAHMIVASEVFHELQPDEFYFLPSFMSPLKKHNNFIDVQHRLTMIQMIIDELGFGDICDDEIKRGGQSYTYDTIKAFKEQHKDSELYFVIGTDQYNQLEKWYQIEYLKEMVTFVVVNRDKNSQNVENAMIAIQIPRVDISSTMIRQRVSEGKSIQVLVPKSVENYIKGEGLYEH
# [30] = molecular target: T7, Probable nicotinate-nucleotide adenylyltransferase; assay type: functional, Staphylococcus aureus subsp. aureus N315
# [31] = molecular target: T5, Beta-lactamase
# [32] = molecular target: T6, Beta-lactamase
# [33] = molecular target: Large T antigen (Simian virus 40, UniProt P03070); assay type: functional, Betapolyomavirus macacae;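 note: Confirmatory-stage PubChem screen for compounds that inhibit SV40 T antigen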
# Sequence of Large T antigen (P03070 whole entry): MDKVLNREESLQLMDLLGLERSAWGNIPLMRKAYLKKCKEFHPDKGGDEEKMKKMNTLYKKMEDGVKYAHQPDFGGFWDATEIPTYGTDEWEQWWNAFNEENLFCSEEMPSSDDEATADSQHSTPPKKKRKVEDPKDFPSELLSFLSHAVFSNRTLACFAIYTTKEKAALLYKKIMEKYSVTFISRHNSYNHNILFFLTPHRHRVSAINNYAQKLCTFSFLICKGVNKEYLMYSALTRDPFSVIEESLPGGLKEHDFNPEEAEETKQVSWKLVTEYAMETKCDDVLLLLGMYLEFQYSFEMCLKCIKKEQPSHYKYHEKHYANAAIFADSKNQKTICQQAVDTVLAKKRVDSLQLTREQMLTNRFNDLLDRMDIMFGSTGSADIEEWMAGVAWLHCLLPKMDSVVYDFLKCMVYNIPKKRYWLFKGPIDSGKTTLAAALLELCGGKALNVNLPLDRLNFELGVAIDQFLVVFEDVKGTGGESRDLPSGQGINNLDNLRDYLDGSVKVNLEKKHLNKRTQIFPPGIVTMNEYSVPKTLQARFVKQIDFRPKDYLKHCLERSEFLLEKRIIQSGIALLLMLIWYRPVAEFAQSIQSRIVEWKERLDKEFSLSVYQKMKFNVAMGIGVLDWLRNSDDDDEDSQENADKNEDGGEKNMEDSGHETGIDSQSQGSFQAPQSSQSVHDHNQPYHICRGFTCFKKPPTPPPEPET
# [34] = T. cruzi growth inhibition in host cells, dose response, cell-based, plate reader, dry powder, set 2 (AID 652275); assay type: functional
# Sequence of Protein Wnt-3a (P27467 whole entry): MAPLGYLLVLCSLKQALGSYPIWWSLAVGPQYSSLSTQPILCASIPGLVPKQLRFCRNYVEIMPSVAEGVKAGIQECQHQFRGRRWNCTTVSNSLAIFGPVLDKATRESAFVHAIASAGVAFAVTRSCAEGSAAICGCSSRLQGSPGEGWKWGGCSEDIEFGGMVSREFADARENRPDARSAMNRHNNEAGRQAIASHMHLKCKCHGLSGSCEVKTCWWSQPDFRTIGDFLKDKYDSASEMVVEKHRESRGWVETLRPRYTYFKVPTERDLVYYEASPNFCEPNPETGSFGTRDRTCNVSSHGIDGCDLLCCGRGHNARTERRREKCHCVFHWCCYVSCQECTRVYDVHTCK
structure (smiles),measurement,setting,value
O=C(Nc1cc(N2CCCCC2)ncn1)c1cccc2ccccc12,IC50,[1],> 21.8 µM (inactive)
CC1(C)C=Cc2cc3ccc(=O)oc3cc2O1 [XANTHYLETIN],AC50,[2],8.65 µM (active)
same,IC50,[3],> 1.11 µM (active)
CC(C)(C)c1cc(NCCCn2ccnc2)n2ncc(-c3ccc(Cl)cc3)c2n1,AC50,[4],1.45 µM (active)
same,EC50,[5],5.5 µM (active)
same,EC50,[6],1.91 µM (active)
same,EC50,[7],6.12 µM (active)
same,IC50,[8],> 20 µM (inactive)
same,EC50,[9],1.49 µM (active)
same,EC50,[10],> 150 µM (not active)
COc1ccc(CN(C)c2ccc(S(=O)(=O)N3CCN(C)CC3)cc2[N+](=O)[O-])cc1OC,IC50,[11],> 80 µM (inactive)
same,AC50,[12],0.691 µM (active)
same,AC50,[13],0.824 µM (active)
same,AC50,[14],1.45 µM (active)
same,EC50,[15],> 29.9 µM (inactive)
same,IC50,[16],2.05 µM (active)
same,AC50,[17],23.8 µM (active)
same,IC50,[18],> 80 µM (inactive)
same,IC50,[19],0.419 µM (active)
CC(=O)NCCNC(=O)C1Cc2c(-c3ccc4c(c3)OCO4)ccnc2O1 (stereo not given),IC50,[3],1.73 µM (active)
CCSc1ccc(-c2cc(NC=O)c3ncc(-c4cccc(C(=O)NCCN(C)C)c4)n3c2)cc1,AC50,[20],53.9 µM (active)
same,AC50,[21],1.14 µM (active)
same,IC50,[22],20 µM (inactive)
same,IC50,[23],11.8 µM (inactive)
same,AC50,[24],9.88 µM (active)
O=C(O)c1c(C(=O)O)c(-c2ccc(Br)cc2)n2c1CSC2,IC50,[25],> 59.6 µM (inactive)
same,AC50,[26],5.35 µM (active)
same,IC50,[27],41.9 µM (inactive)
same,IC50,[28],> 59.6 µM (inactive)
CCC(=O)Nc1ccc(C(=O)COC(=O)c2nc3nccc(C)n3n2)cc1,IC50,[29],4.5 µM (active)
same,IC50,[30],1.92 µM (active)
CCCCC(Sc1nc(N)c(NC(=O)c2ccco2)c(=O)[nH]1)C(=O)O (stereo not given),IC50,[31],> 59.6 µM (inactive)
same,IC50,[32],> 59.6 µM (inactive)
Sc1nnc(C2CC2)n1Cc1ccco1,IC50,[25],> 59.6 µM (inactive)
same,IC50,[27],> 59.6 µM (inactive)
same,IC50,[28],> 59.6 µM (inactive)
CCC(NCCC(c1ccccc1)c1ccccc1)=C1C(=O)NC(=O)NC1=O,EC50,[15],> 29.9 µM (inactive)
same,IC50,[19],5.36 µM (active)
O=C(Nc1cccc(N2C(=O)C=CC2=O)c1)c1cccs1,IC50,[33],70.5 µM (active)
same,EC50,[5],4.6 µM (active)
same,IC50,[22],14.1 µM (inactive)
same,IC50,[23],2.27 µM (active)
same,EC50,[9],2.12 µM (active)
CC1CCCCN1c1cc(NC(=O)c2ccccc2)ncn1 (stereo not given),IC50,[1],> 21.8 µM (inactive)
C[C@H]1CN([C@@H](C)CO)C(=O)c2cccc(NC(=O)c3ccncc3)c2O[C@@H]1CN(C)Cc1ccc(F)c(F)c1,AC50,[34],0.0246 µM (active)
